One data set deals with HLMs. The experiment in a line: Chemical inhibition assay: formation of P4 from toddalolactone in HLMs. In kind it is in vitro ADME, human. As to conditions: HLMs with toddalolactone and NADPH-generating system; ketoconazole 1 μM, clobetasol propionate 1.8 μM, quinidine 10 μM; vs no inhibitor. The protocol:
All incubation assays were completed in triplicate. The data are presented as mean ± standard deviation (SD).
Specific inhibitors for P450 isoforms were used to explore the contribution of CYP isoforms to the biotransformation of toddalolactone. […] In brief, toddalolactone was incubated with HLMs and an NADPH-generating system in the presence and absence (control) of the aforementioned specific inhibitors.

The next data set deals with CYP3A5 (Homo sapiens, UniProt P20815). On the set-up: purchased Corning Life Sciences (Corning, MA); host or cells: Saccharomyces cerevisiae; method as in Wright et al. [2020]. As to conditions: at 1.8 μM; ref Wright et al. [2020]; cited from earlier work.
Substrate in data set [1]: COc1cc2oc(=O)ccc2c(OC)c1C[C@@H](O)C(C)(C)O
The experiment in a line: cells, lysate or membranes named. To be noted: P4 formation, toddalolactone 1–200 μM, pH 7.4, 37.0 °C.

Regarding `CCC(=O)O[C@]1(C(=O)CCl)[C@@H](C)C[C@H]2[C@@H]3CCC4=CC(=O)C=C[C@]4(C)[C@@]3(F)[C@@H](O)C[C@@]21C` [clobetasol propionate], the “inhibition of formation of P4” value in the data set with HLMs is on record as roughly 40%. For the same molecule, on CYP3A5, the “inhibition of CYP3A5” value is listed as 90%.

B1: CYP3A5 (Homo sapiens) (protein)
chain: MDLIPNLAVETWLLLAVSLVLLYLYGTRTHGLFKRLGIPGPTPLPLLGNVLSYRQGLWKFDTECYKKYGKMWGTYEGQLPVLAITDPDVIRTVLVKECYSVFTNRRSLGPVGFMKSAISLAEDEEWKRIRSLLSPTFTSGKLKEMFPIIAQYGDVLVRNLRREAEKGKPVTLKDIFGAYSMDVITGTSFGVNIDSLNNPQDPFVESTKKFLKFGFLDPLFLSIILFPFLTPVFEALNVSLFPKDTINFLSKSVNRMKKSRLNDKQKHRLDFLQLMIDSQNSKETESHKALSDLELAAQSIIFIFAGYETTSSVLSFTLYELATHPDVQQKLQKEIDAVLPNKAPPTYDAVVQMEYLDMVVNETLRLFPVAIRLERTCKKDVEINGVFIPKGSMVVIPTYALHHDPKYWTEPEEFRPERFSKKKDSIDPYIYTPFGTGPRNCIGMRFALMNMKLALIRVLQNFSFKPCKETQIPLKLDTQGLLQPEKPIVLKVDSRDGTLSGE
Turning to B1, the kcat in data set [1] (other: recombinant CYP3A5 (15 nM)) is recorded as 0.68 ± 0.04 pmol/min/nmol CYP.

B2: CYP1A1 (Homo sapiens) (protein)
chain: MLFPISMSATEFLLASVIFCLVFWVIRASRPQVPKGLKNPPGPWGWPLIGHMLTLGKNPHLALSRMSQQYGDVLQIRIGSTPVVVLSGLDTIRQALVRQGDDFKGRPDLYTFTLISNGQSMSFSPDSGPVWAARRRLAQNGLKSFSIASDPASSTSCYLEEHVSKEAEVLISTLQELMAGPGHFNPYRYVVVSVTNVICAICFGRRYDHNHQELLSLVNLNNNFGEVVGSGNPADFIPILRYLPNPSLNAFKDLNEKFYSFMQKMVKEHYKTFEKGHIRDITDSLIEHCQEKQLDENANVQLSDEKIINIVLDLFGAGFDTVTTAISWSLMYLVMNPRVQRKIQEELDTVIGRSRRPRLSDRSHLPYMEAFILETFRHSSFVPFTIPHSTTRDTSLKGFYIPKGRCVFVNQWQINHDQKLWVNPSEFLPERFLTPDGAIDKVLSEKVIIFGMGKRKCIGETIARWEVFLFLAILLQRVEFSVPLGVKVDMTPIYGLTMKHACCEHFQMQLRS
In the case of B2, in data set [1] (other: recombinant CYP1A1 (15 nM)), the kcat is 0.76 ± 0.03 pmol/min/nmol CYP.

Values taken from paper PMC9367672, “In vitro differences in toddalolactone metabolism in various species and its effect on cytochrome P450 expression” (Pharmaceutical Biology, 2022).
